A short description of data set [1]: Differential Scanning Calorimetry (DSC) of crystalline forms of Org 30659. It counts as physicochemical. The settings on record: determined by DSC, heating rate 5.0° C./min, from the melting peak. As for the experimental part: Differential Scanning Calorimetry (DSC)
DSC curves were recorded using a Seiko DSC-120 instrument. Closed aluminium pans having a volume of 5 μl were used in combination with a nitrogen flow of 50 ml/min. The heating rate was 5.0° C./min.
DSC curves of crystalline forms of Org 30659. The horizontal axis represents the temperature in ° C. (heating), the vertical axis represents heat in μW or mW.
A general note: DSC measures the heat that a sample takes up or gives off during a temperature scan.

Data set [2] is described as follows: Relative stability of crystalline forms on heating / in boiling water. The note with it: at temperatures below 155° C., including subjection to boiling water. The data set is classed as physicochemical.

“And” between values parts separate entries of the source, which are not always exact repeats. Equal entries are not always repeated.

For the compound `C#C[C@]1(O)C=C[C@H]2[C@@H]3CCC4=CC(=O)CC[C@@H]4[C@H]3C(=C)C[C@@]21C` [form (A), (17α)-17-hydroxy-11-methylene-19-norpregna-4,15-diene-20-yn-3-one], the “thermodynamic stability, enthalpy ΔH” value in data set [1] is 84.3 mJ/mg and 84 mJ/mg. For the same compound, the “relative stability of the crystalline form” value in data set [2] is reported as “the most stable one”.
With `C#C[C@]1(O)C=C[C@H]2[C@@H]3CCC4=CC(=O)CC[C@@H]4[C@H]3C(=C)C[C@@]21C` [form (B), (17α)-17-hydroxy-11-methylene-19-norpregna-4,15-diene-20-yn-3-one], the “thermodynamic stability, enthalpy ΔH” value in data set [1] is 70 mJ/mg and 70.4 mJ/mg.
For `C#C[C@]1(O)C=C[C@H]2[C@@H]3CCC4=CC(=O)CC[C@@H]4[C@H]3C(=C)C[C@@]21C` [form (C), (17α)-17-hydroxy-11-methylene-19-norpregna-4,15-diene-20-yn-3-one], the “thermodynamic stability, enthalpy ΔH” value in data set [1] and in data set [1] (listed as form C) was 71.9 mJ/mg in each case.

For the origin of these results see US20020010166A1, “CRYSTALLINE PROGESTAGENS” (priority 1997, published 2002).
